From US4100346A, “Certain 7(o-amino-methyl- or methylaminomethylphenyl- or cyclohexadienyl- or thienylacetamide)-3[1-carboxymethyl-(or ethyl- or propyl-)-tetrazol-5-ylthiomethyl]-3-cephem-4-carboxylic acids” (Bristol-Myers Company, priority 1976, dated 1978)
In brackets after ≈: the same amount, converted by molar mass. Read-outs that look alike come from different tables or passages of the source.

Columns and labels:
Clostridium sp. = assay: microbe, parasite or virus in culture; type: cell-based; details: read-out: Minimum inhibitory concentration
Protocol: Antibiotic spectrum. […] Procedures were as follows:
c. Obligate anaerobes. The assay was performed on solid medium, consisting of Brain Heart Infusion Broth (BBL) supplemented with 5% defibrinated sheep blood and 1% Ionagar (Colab).

Staphylococcus Aureus = assay: Effect of inoculum size on susceptibility of Staphylococcus aureus; type: cell-based; details: for MICB /MICA: MIC at 10^6 over MIC at 10^2 organisms; for MIC: Staphylococcus aureus, geometric means, read-out: Minimum inhibitory concentration
Enterobacter aerogenes = assay: Minimum growth inhibitory and bactericidal concentrations for Enterobacteriaceae; type: cell-based; details: Klebsiella aerogenes, inoculum 10^4 cells; for MBC: read-out: MBC, minimum bactericidal concentration; for MIC: read-out: MIC, Minimum growth inhibitory concentration
Source text: (§1) Miscellaneous. Methods for determining bactericidal activity and susceptibility to cell-free β-lactamase were those previously used; Leitner et al., BL-S640, A Cephalosporin With a Broad Spectrum of Antibacterial Activity: Properties in vitro, Antimicrob. Agents Chemother. 7:298-305 (1975).
(§2) *MIC, Minimum growth inhibitory concentration; MBC, minimum bactericidal
(§3) concentration; expressed as micrograms per milliliter. The inoculum was […]

Enterobacter cloacae = assay: as above; type: cell-based; details: for MBC: read-out: MBC, minimum bactericidal concentration; for MIC: read-out: MIC, Minimum growth inhibitory concentration
Source text: as §1, §2, §3

Escherichia coli [1] = assay: as above; type: cell-based; details: for MBC: read-out: MBC, minimum bactericidal concentration; for MIC: read-out: MIC, Minimum growth inhibitory concentration
Source text: as §1, §2, §3

Klebsiella pneumoniae = assay: as above; type: cell-based; details: for MBC: read-out: MBC, minimum bactericidal concentration; for MIC: read-out: MIC, Minimum growth inhibitory concentration
Source text: as §1, §2, §3

Proteus mirabilis = assay: as above; type: cell-based; details: for MBC: read-out: MBC, minimum bactericidal concentration; for MIC: read-out: MIC, Minimum growth inhibitory concentration
Source text: as §1, §2, §3

Proteus rettgeri [2] = assay: as above; type: cell-based; details: Providencia rettgeri, inoculum 10^4 cells; for MBC: read-out: MBC, minimum bactericidal concentration; for MIC: read-out: MIC, Minimum growth inhibitory concentration
Source text: as §1, §2, §3

Proteus vulgaris = assay: as above; type: cell-based; details: Proteus vulgaris, inoculum 10^4 cells; for MBC: read-out: MBC, minimum bactericidal concentration; for MIC: read-out: MIC, Minimum growth inhibitory concentration
Source text: as §1, §2, §3

[3] = Recovery in urine after intramuscular injection; details: rat, im, 10 mg/kg
Arizona hinshawii = assay: Growth inhibitory activity, antibiotic dilution technique; details: Salmonella enterica, read-out: Minimum inhibitory concentration
Serratia marcescens = assay: as above; details: read-out: Minimum inhibitory concentration
Vibrio cholerae = assay: as above; details: read-out: Minimum inhibitory concentration
Alcaligenes sp. = assay: as above
Listeria monocytogenes = assay: as above; details: read-out: Minimum inhibitory concentration
Proteus rettgeri [4] = assay: as above
Escherichia coli [5] = assay: Effect of inoculum size on susceptibility of Enterobacteriaceae
Proteus rettgeri [6] = assay: as above; details: Providencia rettgeri
[7] = Antibiotic concentration in blood after intramuscular injection; details: mouse, im
[8] = Enterobacter aerogenes strain 1
[9] = Enterobacter aerogenes strain 2
[10] = Enterobacter aerogenes strain 3
[11] = Enterobacter cloacae strain 3, inoculum 10^4 cells
[12] = Enterobacter cloacae strain 4, inoculum 10^4 cells
[13] = Enterobacter cloacae strain 8, inoculum 10^4 cells
[14] = Escherichia coli strain 1, inoculum 10^4 cells
[15] = Escherichia coli strain 2, inoculum 10^4 cells
[16] = Escherichia coli strain 3, inoculum 10^4 cells
[17] = Escherichia coli strain 4, inoculum 10^4 cells
[18] = Escherichia coli strain 5, inoculum 10^4 cells
[19] = Escherichia coli strain 6, inoculum 10^4 cells
[20] = Klebsiella pneumoniae strain 1, inoculum 10^4 cells
[21] = Klebsiella pneumoniae strain 2, inoculum 10^4 cells
[22] = Klebsiella pneumoniae strain 3, inoculum 10^4 cells
[23] = Klebsiella pneumoniae strain 4, inoculum 10^4 cells
[24] = Klebsiella pneumoniae strain 5, inoculum 10^4 cells
[25] = Klebsiella pneumoniae strain 6, inoculum 10^4 cells
[26] = Proteus mirabilis strain 1, inoculum 10^4 cells
[27] = Proteus mirabilis strain 2, inoculum 10^4 cells
[28] = Proteus mirabilis strain 3, inoculum 10^4 cells
[29] = Proteus mirabilis strain 4, inoculum 10^4 cells
[30] = Proteus mirabilis strain 5, inoculum 10^4 cells

SMILES: O=C(Cc1cccs1)N[C@@H]1C(=O)N2C(C(=O)[O-])=C(C[n+]3ccccc3)CS[C@H]12 [Cephaloridine]
- MIC (Clostridium sp.): 0.63 µg/mL (≈ 1.52 µM)
- MICB /MICA (Staphylococcus Aureus; Lacking penicillinase, 3 strains): 1.6
- MICB /MICA (Staphylococcus Aureus; Penicillinase producer, 26 strains): 20
- MIC (Staphylococcus Aureus; Lacking penicillinase, 3 strains, A, Inoculum of 10^2 organisms): 0.025 µg/mL (≈ 0.0602 µM)
- MIC (Staphylococcus Aureus; Lacking penicillinase, 3 strains, B, inoculum of 10^6 organisms): 0.039 µg/mL (≈ 0.0939 µM)
- MIC (Staphylococcus Aureus; Penicillinase producer, 26 strains, A, Inoculum of 10^2 organisms): 0.077 µg/mL (≈ 0.185 µM)
- MIC (Staphylococcus Aureus; Penicillinase producer, 26 strains, B, inoculum of 10^6 organisms): 1.6 µg/mL (≈ 3.85 µM)
- effect of cell concentration on growth inhibitory activity (Staphylococcus Aureus; penicillinase-producing strains): sharply
- MBC (Enterobacter aerogenes; [8]): > 250 µg/mL
- MIC (Enterobacter aerogenes; [8]): > 250 µg/mL
- MBC (Enterobacter aerogenes; [9]): > 250 µg/mL
- MIC (Enterobacter aerogenes; [9]): 250 µg/mL (≈ 602 µM)
- MBC (Enterobacter aerogenes; [10]): 250 µg/mL (≈ 602 µM)
- MIC (Enterobacter aerogenes; [10]): 250 µg/mL (≈ 602 µM)
- MBC (Enterobacter cloacae; [11]): 16 µg/mL (≈ 38.5 µM)
- MIC (Enterobacter cloacae; [11]): 16 µg/mL (≈ 38.5 µM)
- MBC (Enterobacter cloacae; [12]): > 250 µg/mL
- MIC (Enterobacter cloacae; [12]): > 250 µg/mL
- MBC (Enterobacter cloacae; [13]): > 250 µg/mL
- MIC (Enterobacter cloacae; [13]): > 250 µg/mL
- MBC (Escherichia coli [1]; [14]): 4 µg/mL (≈ 9.63 µM)
- MIC (Escherichia coli [1]; [14]): 4 µg/mL (≈ 9.63 µM)
- MBC (Escherichia coli [1]; [15]): 16 µg/mL (≈ 38.5 µM)
- MIC (Escherichia coli [1]; [15]): 16 µg/mL (≈ 38.5 µM)
- MBC (Escherichia coli [1]; [16]): 2 µg/mL (≈ 4.81 µM)
- MIC (Escherichia coli [1]; [16]): 2 µg/mL (≈ 4.81 µM)
- MBC (Escherichia coli [1]; [17]): 4 µg/mL (≈ 9.63 µM)
- MIC (Escherichia coli [1]; [17]): 4 µg/mL (≈ 9.63 µM)
- MBC (Escherichia coli [1]; [18]): 4 µg/mL (≈ 9.63 µM)
- MIC (Escherichia coli [1]; [18]): 4 µg/mL (≈ 9.63 µM)
- MBC (Escherichia coli [1]; [19]): 8 µg/mL (≈ 19.3 µM)
- MIC (Escherichia coli [1]; [19]): 4 µg/mL (≈ 9.63 µM)
- MBC (Klebsiella pneumoniae; [20]): 4 µg/mL (≈ 9.63 µM)
- MIC (Klebsiella pneumoniae; [20]): 2 µg/mL (≈ 4.81 µM)
- MBC (Klebsiella pneumoniae; [21]): 4 µg/mL (≈ 9.63 µM)
- MIC (Klebsiella pneumoniae; [21]): 4 µg/mL (≈ 9.63 µM)
- MBC (Klebsiella pneumoniae; [22]): 2 µg/mL (≈ 4.81 µM)
- MIC (Klebsiella pneumoniae; [22]): 2 µg/mL (≈ 4.81 µM)
- MBC (Klebsiella pneumoniae; [23]): 4 µg/mL (≈ 9.63 µM)
- MIC (Klebsiella pneumoniae; [23]): 4 µg/mL (≈ 9.63 µM)
- MBC (Klebsiella pneumoniae; [24]): 8 µg/mL (≈ 19.3 µM)
- MIC (Klebsiella pneumoniae; [24]): 8 µg/mL (≈ 19.3 µM)
- MBC (Klebsiella pneumoniae; [25]): 2 µg/mL (≈ 4.81 µM)
- MIC (Klebsiella pneumoniae; [25]): 2 µg/mL (≈ 4.81 µM)
- MBC (Proteus mirabilis; [26]): 16 µg/mL (≈ 38.5 µM)
- MIC (Proteus mirabilis; [26]): 8 µg/mL (≈ 19.3 µM)
- MBC (Proteus mirabilis; [27]): 8 µg/mL (≈ 19.3 µM)
- MIC (Proteus mirabilis; [27]): 8 µg/mL (≈ 19.3 µM)
- MBC (Proteus mirabilis; [28]): 8 µg/mL (≈ 19.3 µM)
- MIC (Proteus mirabilis; [28]): 8 µg/mL (≈ 19.3 µM)
- MBC (Proteus mirabilis; [29]): 8 µg/mL (≈ 19.3 µM)
- MIC (Proteus mirabilis; [29]): 8 µg/mL (≈ 19.3 µM)
- MBC (Proteus mirabilis; [30]): 8 µg/mL (≈ 19.3 µM)
- MIC (Proteus mirabilis; [30]): 4 µg/mL (≈ 9.63 µM)
- MBC (Proteus rettgeri [2]; Proteus rettgeri strain 2): 0.5 µg/mL (≈ 1.2 µM)
- MIC (Proteus rettgeri [2]; Proteus rettgeri strain 2): 0.5 µg/mL (≈ 1.2 µM)
- MBC (Proteus rettgeri [2]; Proteus rettgeri strain 3): > 250 µg/mL
- MIC (Proteus rettgeri [2]; Proteus rettgeri strain 3): 32 µg/mL (≈ 77 µM)
- MBC (Proteus vulgaris; Proteus vulgaris strain 1): 8 µg/mL (≈ 19.3 µM)
- MIC (Proteus vulgaris; Proteus vulgaris strain 1): 8 µg/mL (≈ 19.3 µM)
- MBC (Proteus vulgaris; Proteus vulgaris strain 2): 16 µg/mL (≈ 38.5 µM)
- MIC (Proteus vulgaris; Proteus vulgaris strain 2): 8 µg/mL (≈ 19.3 µM)
- MBC (Proteus vulgaris; Proteus vulgaris strain 4): 16 µg/mL (≈ 38.5 µM)
- MIC (Proteus vulgaris; Proteus vulgaris strain 4): 8 µg/mL (≈ 19.3 µM)
- dose excreted at 24 h [3]: 59%
- MIC (Arizona hinshawii): 2 µg/mL (≈ 4.81 µM)
- MIC (Serratia marcescens): > 125 µg/mL
- MIC (Vibrio cholerae): 16 µg/mL (≈ 38.5 µM)
- MIC (Alcaligenes sp.; read-out: Minimum inhibitory concentration, Alcaligenes sp., 2 strains, geometric mean when applicable): > 125 µg/mL
- MIC (Alcaligenes sp.; read-out: Minimum inhibitory concentration, Alcaligenes sp., 4 strains, geometric mean when applicable): > 125 µg/mL
- MIC (Alcaligenes sp.; read-out: Minimum inhibitory concentration, Alcaligenes sp., 5 strains, geometric mean when applicable): 6.1 µg/mL (≈ 14.7 µM)
- MIC (Listeria monocytogenes): 0.91 µg/mL (≈ 2.19 µM)
- percent of strains inhibited (Proteus rettgeri [4]): negligible
- MIC (Escherichia coli [5]; read-out: Minimum Inhibitory Concentration, Escherichia coli strain 1, A, Inoculum of 10^2 organisms): 2 µg/mL (≈ 4.81 µM)
- MIC (Escherichia coli [5]; read-out: Minimum Inhibitory Concentration, Escherichia coli strain 1, B, Inoculum of 10^6 organisms): 8 µg/mL (≈ 19.3 µM)
- MIC (Escherichia coli [5]; read-out: Minimum Inhibitory Concentration, Escherichia coli strain 2, A, Inoculum of 10^2 organisms): 4 µg/mL (≈ 9.63 µM)
- MIC (Escherichia coli [5]; read-out: Minimum Inhibitory Concentration, Escherichia coli strain 2, B, Inoculum of 10^6 organisms): 16 µg/mL (≈ 38.5 µM)
- MIC (Escherichia coli [5]; read-out: Minimum Inhibitory Concentration, Escherichia coli strain 3, A, Inoculum of 10^2 organisms): 2 µg/mL (≈ 4.81 µM)
- MIC (Escherichia coli [5]; read-out: Minimum Inhibitory Concentration, Escherichia coli strain 3, B, Inoculum of 10^6 organisms): 4 µg/mL (≈ 9.63 µM)
- MIC (Escherichia coli [5]; read-out: Minimum Inhibitory Concentration, Escherichia coli strain 4, A, Inoculum of 10^2 organisms): 2 µg/mL (≈ 4.81 µM)
- MIC (Escherichia coli [5]; read-out: Minimum Inhibitory Concentration, Escherichia coli strain 4, B, Inoculum of 10^6 organisms): 4 µg/mL (≈ 9.63 µM)
- MIC (Escherichia coli [5]; read-out: Minimum Inhibitory Concentration, Escherichia coli strain 5, A, Inoculum of 10^2 organisms): 4 µg/mL (≈ 9.63 µM)
- MIC (Escherichia coli [5]; read-out: Minimum Inhibitory Concentration, Escherichia coli strain 5, B, Inoculum of 10^6 organisms): 8 µg/mL (≈ 19.3 µM)
- MIC (Escherichia coli [5]; read-out: Minimum Inhibitory Concentration, Escherichia coli strain 6, A, Inoculum of 10^2 organisms): 2 µg/mL (≈ 4.81 µM)
- MIC (Escherichia coli [5]; read-out: Minimum Inhibitory Concentration, Escherichia coli strain 6, B, Inoculum of 10^6 organisms): 8 µg/mL (≈ 19.3 µM)
- MIC (Escherichia coli [5]; read-out: Minimum Inhibitory Concentration, Escherichia coli strain 7, A, Inoculum of 10^2 organisms): 2 µg/mL (≈ 4.81 µM)
- MIC (Escherichia coli [5]; read-out: Minimum Inhibitory Concentration, Escherichia coli strain 7, B, Inoculum of 10^6 organisms): 4 µg/mL (≈ 9.63 µM)
- MIC (Proteus rettgeri [6]; read-out: Minimum Inhibitory Concentration, Proteus rettgeri strain 1, A, Inoculum of 10^2 organisms): 4 µg/mL (≈ 9.63 µM)
- MIC (Proteus rettgeri [6]; read-out: Minimum Inhibitory Concentration, Proteus rettgeri strain 1, B, Inoculum of 10^6 organisms): 250 µg/mL (≈ 602 µM)
- MIC (Proteus rettgeri [6]; read-out: Minimum Inhibitory Concentration, Proteus rettgeri strain 2, A, Inoculum of 10^2 organisms): 0.25 µg/mL (≈ 0.602 µM)
- MIC (Proteus rettgeri [6]; read-out: Minimum Inhibitory Concentration, Proteus rettgeri strain 2, B, Inoculum of 10^6 organisms): > 250 µg/mL
- MIC (Proteus rettgeri [6]; read-out: Minimum Inhibitory Concentration, Proteus rettgeri strain 3, A, Inoculum of 10^2 organisms): 16 µg/mL (≈ 38.5 µM)
- MIC (Proteus rettgeri [6]; read-out: Minimum Inhibitory Concentration, Proteus rettgeri strain 3, B, Inoculum of 10^6 organisms): > 250 µg/mL
- half-life [7]: 22 min
- Cmax ([7]; 20 mg/kg): 23000 ng/mL
